System: locomotor activity of rats
Test: Locomotor activity test after the anticipatory nausea test
Type: in vivo, male Sprague-Dawley rats
Settings: 0.01 or 0.1 μg·kg−1 i.p.; 15 min test; ANOVA F(6, 39)=0.9, P>0.05
Procedure: For in vivo experiment 2, contextually elicited conditioned gaping (a model of anticipatory nausea) was measured using a distinctive conditioning chamber made of opaque black Plexiglass (22.5×26×20 cm) with an opaque lid that sat on a table with a clear glass top. A mirror beneath the chamber at a 45° angle facilitated viewing of the ventral surface of the rat to observe orofacial responses. The conditioning chamber was in a dark room next to a 25 W light source. A video camera that was fire-wired into a computer was focused on the mirror to record each rat's orofacial reactions during the 5 min test trial. The video tapes were later scored using ‘The Observer’ software. […]
To compare the potential of HU-580 and CBDA to reduce anticipatory nausea, the contextually elicited conditioned gaping paradigm was used (e.g. Limebeer et al., 2010; Rock et al., 2014). […] Pretreatments were injected 45 min before the rats were given an saline injection (20 mL·kg^−1 i.p.) and individually placed in the conditioning (contextual) chamber for 5 min, and orofacial responses were video recorded. […] The video tapes from the test trial were scored by an observer blind to the experimental conditions using ‘The Observer’ for the behaviors of gaping (large openings of the mouth and jaw, with lower incisors exposed). […]

Question: C=C(C)[C@@H]1CCC(C)=C[C@H]1c1c(O)cc(CCCCC)c(C(=O)OC)c1O [HU-580, Cannabidiolic Acid Methyl Ester] was tested. Which “Distance moved in locomotor activity test” value did it give?
Answer: no significant effect on distance moved

Question: For C=C(C)[C@@H]1CCC(C)=C[C@H]1c1c(O)cc(CCCCC)c(C(=O)O)c1O [CBDA, Cannabidiolic acid], which “Distance moved in locomotor activity test” value is on record?
Answer: no significant effect on distance moved

From patent US11440870B2, “Cannabidiolic acid esters compositions and uses thereof” (Yissum Research Development Company of the Hebrew …, priority 2017, dated 2022)
